# From patent US6083931A, “Method of inhibiting cancer metastasis” (NGK Insulators, Ltd., priority 1997, dated 2000)
# Counter-ions that a name gives are not always drawn.
# Experiments:
# [1] = Acute toxicity test, intravenous, male Wister-strain rats; conditions: rat, in vivo, intravenous administration, sodium salts, pH 7.0
# [2] = tested on: rat AH66F cells adhering to mesentery cells (M-cells); assay: Inhibition of adhesion of rat AH66F cancer cells to rat mesentery cells (M-cells); format: cell-based; conditions: average over four wells
# Excerpt: The present inventors employed, as a model system for the measurement of the metastasis-inhibiting action upon the cancer cells, a system in which rat ascites hepatoma as extremely malignant cancer cells were adhered to mesenteries of a rat. They also employed a cell system as a simpler technique. As the former cancer cells, AH66F-cells were used, whereas M-cells were used as the latter mesentery cells.
# (§1) Mesentery cells (M-cells) originating from a rat was cultivated inside a cell-cultivating well plate with a Dulbecco's Modification of Eagle's Medium (DMEM) containing 5% fetal calf serum (FCS). When the cells spread over the entire face of the well, the cells were washed with DMEM containing no FC3. Further, the cells were cultivated with DMEM containing 10 μg/ml or 100 μg/ml of sialic acid at 37° C. After 45 minutes passed, the well was washed with DMEM, and rat AH66F cells ([…]) and sialic acid at a concentration shown in FIG. 1 were added together with DMEM. […] Then, the number of the cells was measured by a haemacytometer under a microscope (the number of non-adhered cells).
# (§2) As a control, only cancer cells were cultivated, the same operations as mentioned above were effected, and the number of the cells were measured (the number of cells in control).
# (§3) The adhesive rate (%) of the cancer cells was calculated according to the following calculating formula. […]
# [3] = tested on: AH66F cells adhering to M-cells; assay: Inhibition of adhesion of AH66F cells to M-cells under coexistence of anti-LFA-1 antibody; format: cell-based, rat
# Procedure: as §1, with “DMEM. The mixture was cultivated at 37° C. for one hour. After the cultivation, the mixture was stirred for 30 second, and a cultivation supernatant liquid was taken into a sample tube. Into each well was added 200 μl of fresh DMEM, and washing was similarly carried out under stirring for 15 seconds.” for “DMEM.”
# as §2, §3
# AH66F cancer cells = assay: Life-prolonging effect upon rats with AH66F cancer cells; format: in vivo, rat; conditions: for Survival dates: peritoneally administered, control 7.3 ± 0.3; for Life-prolonging percentage: vs control group
# Procedure: AH66F cancer cells (1×10^6 cells) were each peritoneally administered to Donryu male rats (six week age, 100-120 g, each group--6 rats). Immediately thereafter, a solution of sialic acid (dosage: 10 mg/kg and 100 mg/kg) or physiological saline solution was peritoneally administered in a dosage of 0.5 ml (control group). Then, after sialic acid or physiological saline solution was peritoneally administered over 2 days, survival dates of the rats were observed.
# The life-prolonging percentage was calculated according to the following formula. Life-prolonging percentage=[(survival dates of treated group)-(survival dates of control group)/(survival dates of control group]×100
SMILES,LD50 [1] [mg/kg],inhibition at 10 µg/mL ([2]; 10 μg/ml sialic acid) [%],inhibition at 100 µg/mL ([2]; 100 μg/ml sialic acid) [%],"inhibition at 100 µg/mL ([3]; Rattus norvegicus, 100 μg/ml sialic acid under coexistence of 10 μg/ml anti-LFA-1 antibody) [%]",synergistic effect on adhesion inhibition (in words) ([3]; sialic acid with anti-LFA-1 antibody),"life-prolonging effect, times that of control group (AH66F cancer cells; 10 mg/Kg) [times]",Survival dates (AH66F cancer cells; 10 mg/Kg × 3 days),Life-prolonging percentage (AH66F cancer cells; 10 mg/Kg × 3 days) [%],"life-prolonging effect, times that of control group (AH66F cancer cells; 100 mg/Kg) [times]",Survival dates (AH66F cancer cells; 100 mg/Kg × 3 days),Life-prolonging percentage (AH66F cancer cells; 100 mg/Kg × 3 days) [%]
CC(=O)NC1C(O)CC(OC(CO)C(O)C2OC(OC(CO)C(O)C3OC(O)(C(=O)O)CC(O)C3NC(C)=O)(C(=O)O)CC(O)C2NC(C)=O)(C(=O)O)OC1C(O)C(O)CO (stereo not drawn) [trimer],≥ 2000,,,,,,,,,,
"CC(=O)N[C@H]1[C@H]([C@H](O)[C@H](O)CO)OC(O)(C(=O)O)C[C@@H]1O (stereo partly drawn) [sialic acid, N-acetylneuraminic acid]",,27,31,7,synergistic effect,1.6,11.5 ± 0.4,58,1.8,13.4 ± 0.4,84
CC(=O)N[C@H]1[C@H]([C@H](O)[C@H](O)CO)OC(O)(C(=O)O)C[C@@H]1O (stereo partly drawn) [sodium salts of sialic acid],≥ 2000,,,,,,,,,,
